Measured values reported in patent publication US11512057B2, “Unsaturated hydrocarbon pyrimidine thioether compounds and preparation method and application thereof” (Zhejiang University of Technology, priority 2018, dated 2022).

How the values were obtained:
[1] = system: powdery mildew of cucumber; assay: Prevention experiment of powdery mildew of cucumber, living pot assay; format: in vivo; details: 200 ppm; cucumber seedlings, about 10 days
Description: The living pot assay method was adopted, that is, the sample of the test compound was dissolved with a small amount of DMF solvent (the kind of solvent such as acetone, methanol, DMF, etc., is selected according to the solvency of the sample, and the volume ratio of the solvent amount to the spray amount is equal to or less than 0.05), diluted with water containing 0.1% Tween 80, and formulated into the test solution with a desired concentration. Cucumber seedlings at leaf period with the same growth period was sprayed evenly with the prepared agent, and aired. Each concentration was one treatment, each treatment was repeated 3 times, a control agent and a water of blank control were set separately. The fresh powdery mildew spores on the leaves of cucumbers were washed and filtered with double gauze to prepare a suspension with a concentration of about 100,000 spores/mL. The samples were inoculated by spraying, the inoculated samples were moved into artificial climate, and relative humidity was maintained at 60-70%, the temperature was maintained at 23° C., after about 10 days, grading investigation was carried out according to the morbidity of the blank control, control effect was calculated according to disease index.

[2] = system: armyworm; assay: Activity test of armyworm, leaf-dipping method; format: in vivo; details: after 3 days
Description: A certain amount of the original drug was weighed by an analytical balance (0.0001 g), and dissolved in DMF containing 1% Tween-80 emulsifier to prepare a 1% mother liquor, which was then diluted with distilled water for later use.
The insecticidal efficacy was evaluated by a leaf-dipping method with the armyworm as a target and a spray method with Tetranychus cinnabarinus and Aphis craccivora Koch as a target.
Leaf-dipping method: the target for the test was the armyworm, and corn leaves in an appropriate amount were fully infiltrated in the prepared liquid, then dried naturally, placed in culture dishes with filter papers, inoculated with 3rd instar larvae of the armyworm at 10 heads/dish, and placed in an observation room and cultured at 24˜27° C. the results were investigated after 3 days. A brush was used to touch the insect bodies, and the unresponsive were regarded as dead insects.

Compound | effect of preventing powdery mildew [1] | lethal rate on armyworm larvae ([2]; 500 mg/L, 3rd instar larvae) | lethal rate on armyworm larvae ([2]; 100 mg/L)
CO/C=C(/C(=O)OC)c1ccccc1COc1cc(C2CC2)nc(SC/C=C/Cl)n1 [Compound 55] | 100% | – | –
CO/N=C(/C(=O)OC)c1ccccc1COc1nc(SCCC=C(F)F)nc(C)c1C [Compound 271] | 100% | 100% | –
C=CCSc1nc(C)cc(OCc2ccccc2/C(=C\OC)C(=O)OC)n1 [Compound 1] | 100% | – | –
C=C(Cl)CSc1nc(C)cc(OCc2ccccc2/C(=N\OC)C(=O)OC)n1 [Compound 177] | 100% | – | –
CO/N=C(/C(=O)OC)c1ccccc1COc1cc(C2CC2)nc(SCC=C(Cl)Cl)n1 [Compound 215] | – | 100% | –
CO/N=C(/C(=O)OC)c1ccccc1COc1cc(C(F)F)nc(SC/C=C/Cl)n1 [Compound 194] | 100% | 100% | –
COC(=O)N(OC)c1ccccc1COc1cc(C)nc(SC/C=C/Cl)n1 [Compound 337] | – | 100% | –
C=CCSc1nc(C)cc(OCc2ccccc2/C(=N\OC)C(=O)OC)n1 [Compound 145] | – | 100% | –
CCCc1cc(OCc2ccccc2N(OC)C(=O)OC)nc(SCC=C(Cl)Cl)n1 [Compound 357] | – | 100% | –
COC(=O)N(OC)c1ccccc1COc1cc(C(F)F)nc(SCC=C(Cl)Cl)n1 [Compound 354] | – | 100% | –
CO/C=C(/C(=O)OC)c1ccccc1COc1cc(C2CC2)nc(SCCC=C(F)F)n1 [Compound 119] | – | 100% | –
CCCc1cc(OCc2ccccc2/C(=N\OC)C(=O)OC)nc(SCCC=C(F)F)n1 [Compound 261] | – | 100% | –
C=C(Cl)CSc1nc(CC)cc(OCc2ccccc2/C(=C\OC)C(=O)OC)n1 [Compound 36] | 100% | 100% | –
CO/C=C(/C(=O)OC)c1ccccc1COc1cc(C(C)C)nc(SCCC=C(F)F)n1 [Compound 118] | – | 100% | –
CO/N=C(/C(=O)OC)c1ccccc1COc1cc(C)nc(SC/C=C/Cl)n1 [Compound 193] | 100% | 100% | –
CO/C=C(/C(=O)OC)c1ccccc1COc1cc(C)nc(SC/C=C/Cl)n1 [Compound 49] | 100% | – | –
C=C(Cl)CSc1nc(OCc2ccccc2/C(=C\OC)C(=O)OC)cc(C(F)(F)F)n1 [Compound 35] | 100% | 100% | –
CCCc1cc(OCc2ccccc2N(OC)C(=O)OC)nc(SCCC=C(F)F)n1 [Compound 405] | – | 100% | –
CCc1cc(OCc2ccccc2/C(=C\OC)C(=O)OC)nc(SCCC=C(F)F)n1 [Compound 116] | – | 100% | –
COC(=O)N(OC)c1ccccc1COc1cc(C(F)F)nc(SC/C=C/Cl)n1 [Compound 338] | – | 100% | –
CO/N=C(/C(=O)OC)c1ccccc1COc1cc(C(C)C)nc(SCC=C(Cl)Cl)n1 [Compound 214] | – | 100% | –
COC(=O)N(OC)c1ccccc1COc1cc(C2CC2)nc(SCC=C(Cl)Cl)n1 [Compound 359] | – | 100% | –
CO/N=C(/C(=O)OC)c1ccccc1COc1cc(C2CC2)nc(SC/C=C/Cl)n1 [Compound 199] | 100% | 100% | –

Compound | effect of preventing powdery mildew [1] | lethal rate on armyworm larvae ([2]; 500 mg/L, 3rd instar larvae) | lethal rate on armyworm larvae ([2]; 100 mg/L)
C=C(Cl)CSc1nc(CC)cc(OCc2ccccc2/C(=N\OC)C(=O)OC)n1 [Compound 180] | 100% | 100% | –
CCc1cc(OCc2ccccc2/C(=C\OC)C(=O)OC)nc(SCC=C(Cl)Cl)n1 [Compound 68] | – | – | more than 80%
CCCc1cc(OCc2ccccc2/C(=N\OC)C(=O)OC)nc(SCC=C(Cl)Cl)n1 [Compound 213] | – | 100% | –
CO/N=C(/C(=O)OC)c1ccccc1COc1cc(C(F)(F)F)nc(SCC=C(Cl)Cl)n1 [Compound 211] | – | 100% | –
C=C(Cl)CSc1nc(C)c(C)c(OCc2ccccc2/C(=N\OC)C(=O)OC)n1 [Compound 191] | 100% | – | –
COC(=O)N(OC)c1ccccc1COc1cc(C)nc(SCC=C(Cl)Cl)n1 [Compound 353] | – | 100% | –
CO/C=C(/C(=O)OC)c1ccccc1COc1cc(C(F)(F)F)nc(SC/C=C/Cl)n1 [Compound 51] | 100% | 100% | –
CO/C=C(/C(=O)OC)c1ccccc1COc1cc(C)nc(SCCC=C(F)F)n1 [Compound 113] | 100% | 100% | –
CCCc1cc(OCc2ccccc2/C(=C\OC)C(=O)OC)nc(SCCC=C(F)F)n1 [Compound 117] | – | 100% | –
C=CCSc1nc(OCc2ccccc2/C(=C\OC)C(=O)OC)c(Cl)c(C(F)F)n1 [Compound 9] | 100% | 100% | –
CCc1cc(OCc2ccccc2/C(=N\OC)C(=O)OC)nc(SCCC=C(F)F)n1 [Compound 260] | – | 100% | –
C=CCSc1nc(OCc2ccccc2/C(=N\OC)C(=O)OC)cc(C(F)(F)F)n1 [Compound 147] | – | 100% | –
C=C(Cl)CSc1nc(OCc2ccccc2/C(=C\OC)C(=O)OC)cc(C(F)F)n1 [Compound 34] | 100% | 100% | –
CCc1cc(OCc2ccccc2N(OC)C(=O)OC)nc(SCC=C(Cl)Cl)n1 [Compound 356] | – | 100% | –
COC(=O)N(OC)c1ccccc1COc1cc(C(C)C)nc(SCCC=C(F)F)n1 [Compound 406] | – | 100% | –
C=C(Cl)CSc1nc(OCc2ccccc2/C(=N\OC)C(=O)OC)cc(C(F)(F)F)n1 [Compound 179] | 100% | 100% | –
CO/C=C(/C(=O)OC)c1ccccc1COc1cc(C(F)F)nc(SCCC=C(F)F)n1 [Compound 114] | 100% | – | –
CO/C=C(/C(=O)OC)c1ccccc1COc1cc(C(F)F)nc(SC/C=C/Cl)n1 [Compound 50] | 100% | – | –
CO/C=C(/C(=O)OC)c1ccccc1COc1nc(SCCC=C(F)F)nc(C)c1C [Compound 127] | 100% | – | –
CCc1cc(OCc2ccccc2C(=NOC)C(=O)NC)nc(SCCC=C(F)F)n1 [Compound 549] | – | 100% | –
CCCCc1c(C)nc(SCCC=C(F)F)nc1OCc1ccccc1/C(=C\OC)C(=O)OC [Compound 128] | – | 100% | –
C=CCSc1nc(OCc2ccccc2/C(=N\OC)C(=O)OC)cc(C(F)F)n1 [Compound 146] | 100% | – | –
